# Measured values reported in US8383581B2, “Short-chain peptides as parathyroid hormone (PTH) receptor agonist” (Cadila Healthcare Limited, priority 2009, dated 2013).
# Where a SMILES comes first, the peptide text is derived from it. [ ]: non-standard residue; d: D form. ξ: configuration not given here. ξαMeBip(2'-Et,4'-OMe) = CCc1cc(OC)ccc1-c1ccc(CC(C)(N)C(=O)O)cc1; ξBip(2'-Et-4'-OMe) = CCc1cc(OC)ccc1-c1ccc(CC(N)C(=O)O)cc1; Arg(NO2) = N=C(NCCC[C@H](N)C(=O)O)N[N+](=O)[O-]; ξαMePhe(2,6-F2) = CC(N)(Cc1c(F)cccc1F)C(=O)O; ξαMe(hhPhe) = CC(N)(CCCc1ccccc1)C(=O)O; ξαMePhe(2-F) = CC(N)(Cc1ccccc1F)C(=O)O; hArg = N=C(N)NCCCC[C@H](N)C(=O)O; Cit = NC(=O)NCCC[C@H](N)C(=O)O; ξhhPhe = NC(CCCc1ccccc1)C(=O)O; ξαMeF = CC(N)(Cc1ccccc1)C(=O)O; NMeV = CN[C@H](C(=O)O)C(C)C; ξαMeNle = CCCCC(C)(N)C(=O)O; Nle = CCCC[C@H](N)C(=O)O; Ac5c = NC1(C(=O)O)CCCC1; Ac3c = NC1(C(=O)O)CC1; Aib = CC(C)(N)C(=O)O
# Tested on: ovariectomised (OVX) rats
# Test: In vivo anti-osteoporosis activity testing in OVX rat model (serum calcium, phosphate, bone parameters)
# Design: species or system Female Wistar Rats
# Conditions: po
# Text: c) In Vivo Anti-Osteoporosis Activity Testing in OVX Rat Model: The ovariectomised (OVX) rats were used to study anti-osteoporosis activity of test compounds (short-chain peptides) in vivo. The OVX rats develop osteopenia due to ovarian hormone deficiency. Osteopenia can be detected as early as 14 days post OVX, increase for the next 100 days and then stabilised (Wronski T. J., et al., Calcif. Tissue Int., 43(3), 1988, 179-183). Detailed Study Protocol to Evaluate the Effects of Anabolic Therapy on Bone Markers and Histomorphometry in OVX Animals: 10 to 11 weeks old Female Wistar Rats (150-200 g) were used. The animals were kept in individually ventilated cages in a room with controlled temperature (23°±3° C.), lighting (12:12 h light-dark cycle) and relative humidity (55±10%). Animals had free access to standard rat chow and water. Protocol for use of animals for conducting this study has been reviewed and approved by Institutional Animal Ethics Committee (IAEC). The animals were marked with picric acid for identification and acclimatized to experimental room conditions for 2 days prior to initiation of the study. For the induction of osteoporosis, rats were bilaterally ovariectomised under anesthesia. For Ovariectomy, Incision was made on dorsa-lateral side near lumbar region of animal. After that, ovary was excised and the veins were tied with ligature before removing ovary to prevent blood loss. Then incision was sutured back with ligature. After Bilateral ovariectomy, animals were allowed to rest for 4 weeks. They were then divided into different groups (n=9) based on their body weight. The groups consisted of a no treatment control, PTH as standard and one or two groups of test compounds (short-chain peptides). The treatment was given for the duration of 6 weeks. At the last day of treatment animals were kept overnight in metabolic cages under fasting for the collection of Urine. Next day, blood was collected after 24 hours of last dosing and animals were sacrificed. Changes in biochemical parameters and bone turnover parameters (Increase in serum Calcium and decrease in Phosphate levels, Acid Phosphatase and TRAP) were evaluated in the urine and serum. After sacrificing, intact femur and tibial bones are removed and cleaned from adherent tissues, muscles and tendons; weighed and collected in formal saline (10% formaldehyde solution). Lumbar vertebra (L5) was excised, carefully cleaned and collected in formal saline. Femur, tibia and Lumbar vertebra-5 (L5) were later processed for histomorphometric evaluation (Zhang L., et al., Tohoku J Exp Med., 1998, 186(2), 131-41; Tanizawa T., et al., Toxicol Lett., 1998, 102, 399-403).
smiles,measurement,setting,value
"CCCC[C@H](NC(=O)[C@H](CC(C)C)NC(=O)[C@H](CCC(N)=O)NC(=O)[C@@H](NC(=O)[C@H](CCC(=O)O)NC(=O)C(C)(C)NC(=O)[C@@H](NC(=O)C(C)(C)N)C(C)C)[C@@H](C)CC)C(=O)N[C@@H](Cc1c[nH]cn1)C(=O)N[C@@H](CCC(N)=O)C(=O)NC(C)(Cc1c(F)cccc1F)C(=O)N[C@@H](C)C(=O)NC(C)(C)C(=O)NC(Cc1ccc(-c2ccc(OC)cc2CC)cc1)C(=O)NC(CCCc1ccccc1)C(N)=O (stereo partly shown) [Seq. ID. 798] (H-[Aib]V[Aib]EIQL[Nle]HQ[ξαMePhe(2,6-F2)]A[Aib][ξBip(2'-Et-4'-OMe)][ξhhPhe]-NH2)",% decrease in serum PO4 Levels (mg/dl) vs control,5 mg/kg,82%
same,% increase in serum Ca^2+ Levels (mg/dl) vs control,5 mg/kg,88%
CCCCC(C)(NC(=O)[C@H](CC(C)C)NC(=O)[C@H](CCC(N)=O)NC(=O)[C@@H](NC(=O)[C@H](CCC(=O)O)NC(=O)C(C)(C)NC(=O)[C@@H](NC(=O)C1(NC(=O)[C@@H](NC)C(C)C)CCCC1)C(C)C)[C@@H](C)CC)C(=O)N[C@@H](Cc1c[nH]cn1)C(=O)N[C@@H](CCC(N)=O)C(=O)N[C@@H](CCCCNC(=N)N)C(=O)N[C@@H](C)C(=O)N[C@@H](CCCCNC(=N)N)C(=O)NC(Cc1ccc(-c2ccc(OC)cc2CC)cc1)C(=O)NC(C)(CCCc1ccccc1)C(N)=O (stereo partly shown) [Seq. ID. 929] (H-[NMeV][Ac5c]V[Aib]EIQL[ξαMeNle]HQ[hArg]A[hArg][ξBip(2'-Et-4'-OMe)][ξαMe(hhPhe)]-NH2),% decrease in serum PO4 Levels (mg/dl) vs control,2 mg/kg,90%
same,% increase in serum Ca^2+ Levels (mg/dl) vs control,2 mg/kg,121%
CCc1cc(OC)ccc1-c1ccc(CC(NC(=O)[C@H](CCCCN)NC(=O)[C@H](C)NC(=O)[C@H](CCCCNC(=N)N)NC(=O)[C@H](CCC(N)=O)NC(=O)[C@H](Cc2c[nH]cn2)NC(=O)[C@H](CCSC)NC(=O)[C@H](CC(C)C)NC(=O)[C@H](CCC(N)=O)NC(=O)[C@@H](NC(=O)[C@H](CCC(=O)O)NC(=O)C2(NC(=O)[C@@H](NC(=O)C(C)(C)N)C(C)C)CC2)[C@@H](C)CC)C(=O)NC(CCCc2ccccc2)C(N)=O)cc1 (stereo partly shown) [Seq. ID. 607] (H-[Aib]V[Ac3c]EIQLMHQ[hArg]AK[ξBip(2'-Et-4'-OMe)][ξhhPhe]-NH2),% decrease in serum PO4 Levels (mg/dl) vs control,0.01 mg/kg,88%
same,% increase in serum Ca^2+ Levels (mg/dl) vs control,0.01 mg/kg,78%
"CCCC[C@H](NC(=O)C(C)(Cc1c(F)cccc1F)NC(=O)[C@H](CCC(N)=O)NC(=O)[C@@H](NC(=O)[C@H](CCC(=O)O)NC(=O)C(C)(C)NC(=O)[C@@H](NC(=O)C1(N)CC1)C(C)C)[C@@H](C)CC)C(=O)N[C@@H](Cc1c[nH]cn1)C(=O)N[C@@H](CCC(N)=O)C(=O)N[C@@H](CCCCNC(=N)N)C(=O)N[C@@H](C)C(=O)N[C@@H](CCCCN)C(=O)NC(C)(Cc1ccccc1)C(N)=O (stereo partly shown) [Seq. ID. 39] (H-[Ac3c]V[Aib]EIQ[ξαMePhe(2,6-F2)][Nle]HQ[hArg]AK[ξαMeF]-NH2)",% decrease in serum PO4 Levels (mg/dl) vs control,0.03 mg/kg,66%
same,% increase in serum Ca^2+ Levels (mg/dl) vs control,0.03 mg/kg,88%
CCCC[C@H](NC(=O)[C@H](CC(C)C)NC(=O)[C@H](CCC(N)=O)NC(=O)[C@@H](NC(=O)[C@H](CCC(=O)O)NC(=O)C(C)(C)NC(=O)[C@@H](NC(=O)C(C)(C)NC(=O)[C@@H](N)C(C)C)C(C)C)[C@@H](C)CC)C(=O)N[C@@H](Cc1c[nH]cn1)C(=O)N[C@@H](CCC(N)=O)C(=O)N[C@@H](CCCCNC(=N)N)C(=O)N[C@@H](C)C(=O)N[C@@H](CCCCN)C(=O)NC(Cc1ccc(-c2ccc(OC)cc2CC)cc1)C(=O)NC(C)(CCCc1ccccc1)C(N)=O (stereo partly shown) [Seq. ID. 893] (H-V[Aib]V[Aib]EIQL[Nle]HQ[hArg]AK[ξBip(2'-Et-4'-OMe)][ξαMe(hhPhe)]-NH2),% decrease in serum PO4 Levels (mg/dl) vs control,0.3 mg/kg,89%
same,% increase in serum Ca^2+ Levels (mg/dl) vs control,0.3 mg/kg,108%
"CCCC[C@H](NC(=O)C(C)(Cc1c(F)cccc1F)NC(=O)[C@H](CCC(N)=O)NC(=O)[C@@H](NC(=O)[C@H](CCC(=O)O)NC(=O)C(C)(C)NC(=O)[C@@H](NC(=O)C(C)(C)N)C(C)C)[C@@H](C)CC)C(=O)N[C@@H](Cc1c[nH]cn1)C(=O)N[C@@H](CCC(N)=O)C(=O)N[C@@H](CCCCNC(=N)N)C(=O)N[C@@H](C)C(=O)NC(C)(C)C(=O)NC(Cc1ccc(-c2ccc(OC)cc2CC)cc1)C(=O)NC(CCCc1ccccc1)C(N)=O (stereo partly shown) [Seq. ID. 814] (H-[Aib]V[Aib]EIQ[ξαMePhe(2,6-F2)][Nle]HQ[hArg]A[Aib][ξBip(2'-Et-4'-OMe)][ξhhPhe]-NH2)",% decrease in serum PO4 Levels (mg/dl) vs control,0.02 mg/kg,95%
same,% increase in serum Ca^2+ Levels (mg/dl) vs control,0.02 mg/kg,99%
"CCCCC(C)(NC(=O)[C@H](CC(C)C)NC(=O)[C@H](CCC(N)=O)NC(=O)[C@@H](NC(=O)[C@H](CCC(=O)O)NC(=O)C(C)(C)NC(=O)[C@@H](NC(=O)C(C)(C)N)C(C)C)[C@@H](C)CC)C(=O)N[C@@H](Cc1c[nH]cn1)C(=O)N[C@@H](CCC(N)=O)C(=O)N[C@@H](CCCCNC(=N)N)C(=O)N[C@@H](C)C(=O)N[C@@H](CCCCNC(=N)N)C(=O)NC(C)(Cc1ccc(-c2ccc(OC)cc2CC)cc1)C(=O)NC(CCCc1ccccc1)C(N)=O (stereo partly shown) [Seq. ID. 911] (H-[Aib]V[Aib]EIQL[ξαMeNle]HQ[hArg]A[hArg][ξαMeBip(2'-Et,4'-OMe)][ξhhPhe]-NH2)",% decrease in serum PO4 Levels (mg/dl) vs control,10 mg/kg,97%
same,% increase in serum Ca^2+ Levels (mg/dl) vs control,10 mg/kg,121%
"CCCC[C@H](NC(=O)C(C)(Cc1c(F)cccc1F)NC(=O)[C@H](CCC(N)=O)NC(=O)[C@@H](NC(=O)[C@H](CCC(=O)O)NC(=O)C(C)(C)NC(=O)[C@@H](NC(=O)C1(N)CCCC1)C(C)C)[C@@H](C)CC)C(=O)N[C@@H](Cc1c[nH]cn1)C(=O)N[C@@H](CCC(N)=O)C(=O)N[C@@H](CCCNC(N)=O)C(=O)N[C@@H](C)C(=O)NC(C)(Cc1c(F)cccc1F)C(=O)NC(C)(Cc1c(F)cccc1F)C(N)=O (stereo partly shown) [Seq. ID. 391] (H-[Ac5c]V[Aib]EIQ[ξαMePhe(2,6-F2)][Nle]HQ[Cit]A[ξαMePhe(2,6-F2)][ξαMePhe(2,6-F2)]-NH2)",% decrease in serum PO4 Levels (mg/dl) vs control,0.1 mg/kg,59%
same,% increase in serum Ca^2+ Levels (mg/dl) vs control,0.1 mg/kg,82%
"CCCC[C@H](NC(=O)C(C)(Cc1c(F)cccc1F)NC(=O)[C@H](CCC(N)=O)NC(=O)[C@@H](NC(=O)[C@H](CCC(=O)O)NC(=O)C(C)(C)NC(=O)[C@@H](NC(=O)C1(N)CCCC1)C(C)C)[C@@H](C)CC)C(=O)N[C@@H](Cc1c[nH]cn1)C(=O)N[C@@H](CCC(N)=O)C(=O)N[C@@H](CCCNC(N)=O)C(=O)N[C@@H](C)C(=O)N[C@@H](CCCNC(=N)N[N+](=O)[O-])C(=O)NC(C)(Cc1c(F)cccc1F)C(N)=O (stereo partly shown) [Seq. ID. 407] (H-[Ac5c]V[Aib]EIQ[ξαMePhe(2,6-F2)][Nle]HQ[Cit]A[Arg(NO2)][ξαMePhe(2,6-F2)]-NH2)",% decrease in serum PO4 Levels (mg/dl) vs control,0.03 mg/kg,81%
same,% increase in serum Ca^2+ Levels (mg/dl) vs control,0.03 mg/kg,77%
"CCc1cc(OC)ccc1-c1ccc(CC(C)(NC(=O)[C@H](CCCCNC(=N)N)NC(=O)[C@H](C)NC(=O)[C@H](CCCCNC(=N)N)NC(=O)[C@H](CCC(N)=O)NC(=O)[C@H](Cc2c[nH]cn2)NC(=O)[C@H](CCSC)NC(=O)[C@H](CC(C)C)NC(=O)[C@H](CCC(N)=O)NC(=O)[C@@H](NC(=O)[C@H](CCC(=O)O)NC(=O)C(C)(C)NC(=O)[C@@H](NC(=O)C(C)(C)NC(=O)[C@@H](N)C(C)C)C(C)C)[C@@H](C)CC)C(=O)NC(CCCc2ccccc2)C(N)=O)cc1 (stereo partly shown) [Seq. ID. 902] (H-V[Aib]V[Aib]EIQLMHQ[hArg]A[hArg][ξαMeBip(2'-Et,4'-OMe)][ξhhPhe]-NH2)",% decrease in serum PO4 Levels (mg/dl) vs control,0.8 mg/kg,98%
same,% increase in serum Ca^2+ Levels (mg/dl) vs control,0.8 mg/kg,110%
"CCCC[C@H](NC(=O)C(C)(Cc1ccccc1F)NC(=O)[C@H](CCC(N)=O)NC(=O)[C@@H](NC(=O)[C@H](CCC(=O)O)NC(=O)C(C)(C)NC(=O)[C@@H](NC(=O)C1(N)CCCC1)C(C)C)[C@@H](C)CC)C(=O)N[C@@H](Cc1c[nH]cn1)C(=O)N[C@@H](CCC(N)=O)C(=O)N[C@@H](CCCCNC(=N)N)C(=O)NC(C)(C)C(=O)NC(C)(Cc1c(F)cccc1F)C(=O)NC(C)(Cc1ccccc1F)C(N)=O (stereo partly shown) [Seq. ID. 210] (H-[Ac5c]V[Aib]EIQ[ξαMePhe(2-F)][Nle]HQ[hArg][Aib][ξαMePhe(2,6-F2)][ξαMePhe(2-F)]-NH2)",% decrease in serum PO4 Levels (mg/dl) vs control,1 mg/kg,99%
same,% increase in serum Ca^2+ Levels (mg/dl) vs control,1 mg/kg,96%
